Key:
[1] = tested on: 5-FU degradation; conditions: compared with uracil; cited from earlier work
[2] = tested on: human colon cancer cell line KM20C; assay: Antitumor effect on subcutaneously implanted KM20C tumor in nude mice, 9-day oral dosing (Example 1); assay type: in vivo, male nude mice BALB/c-nu/nu; conditions: folinic acid 20.0 mg/kg/day (given as calcium folinate), alone or with tegafur+gimeracil+oteracil potassium 8.3+2.4+8.1 mg/kg/day or tegafur+uracil 20.0+44.8 mg/kg/day, oral once a day for 9 days, 10 days after grouping
Method: The ratio of the tumor volume 10 days after grouping to the tumor volume upon grouping was calculated to obtain a relative tumor volume. The tumor growth inhibition ratio (%) was determined using the relative tumor volumes of the drug-administered groups and the control group.

[3] = Antitumor effect on subcutaneously implanted Colon 38 tumor in mice, 9-day oral dosing (Example 2); assay type: in vivo, male mice C57BL/6; conditions: folinic acid 40.0 mg/kg/day (given as calcium folinate), alone or with tegafur+gimeracil+oteracil potassium 8.7+2.5+8.5 mg/kg/day or tegafur+uracil 15.1+33.8 mg/kg/day, oral once a day for 9 days; 12 days after grouping
Method: (§1) The ratio of the tumor volume 12 days after grouping to the tumor volume upon grouping was calculated to obtain a relative tumor volume. The tumor growth inhibition ratio (%) was determined using the relative tumor volumes of the drug-administered groups and the control group.

[4] = tested on: human colon cancer cell line Colon 38; assay: as above; assay type: in vivo, male mice C57BL/6; conditions: folinic acid 40.0 mg/kg/day (given as calcium folinate), alone or with tegafur+gimeracil+oteracil potassium 8.7+2.5+8.5 mg/kg/day or tegafur+uracil 15.1+33.8 mg/kg/day, oral once a day for 9 days; 12 days after grouping, vs control group
Method: as §1

[5] = tested on: human colon cancer cell line KM20C; assay: Effect of folinate dosage on the antitumor effect on implanted KM20C tumor in nude mice, 14-day oral dosing (Example 3); assay type: in vivo, male nude mice (BALB/cA-nu); conditions: for enhancement of the antitumor effect of the tegafur/gimeracil/oteracil potassium combined drug: KM20C
Method: The ratio of the tumor volume 15 days after grouping to the tumor volume upon grouping was calculated to obtain a relative tumor volume. The tumor growth inhibition ratio (%) was determined using the relative tumor volumes of the drug-administered groups and the control group.

[6] = Body weight change as parameter of whole-body toxicity (Example 1); conditions: folinic acid 20.0 mg/kg/day (given as calcium folinate), alone or with tegafur+gimeracil+oteracil potassium 8.3+2.4+8.1 mg/kg/day or tegafur+uracil 20.0+44.8 mg/kg/day, oral once a day for 9 days; 10 days after beginning of administration
Source text: A cubic fragment measuring about 2 mm in diameter of the human colon cancer cell line KM20C was subcutaneously implanted on the backs of male nude mice BALB/c-nu/nu. When the average tumor volume (=major axis (mm)×minor axis (mm)^2) reached about 200 mm^3, the mice were divided into groups.
The following preparations each dissolved or suspended in a 0.5% hydroxypropylmethyl cellulose (HPMC) solution were orally administered to the mice once a day in amounts as shown in Table 1 for 9 consecutive days from the day after grouping: calcium folinate; a tegafur/gimeracil/oteracil potassium combined drug (molar ratio of tegafur:gimeracil:oteracil potassium=1:0.4:1); a combined drug containing the tegafur/gimeracil/oteracil potassium combined drug described above and calcium folinate; a tegafur/uracil combined drug (molar ratio of tegafur:uracil=1:4); and a combined drug containing the tegafur/uracil combined drug described above and calcium folinate.
(§2) The body weight change was calculated by subtracting the body weight of mice 10 days after the beginning of administration from the body weight of mice upon grouping and used as a parameter of whole-body toxicity of the pharmaceutical preparation.

[7] = Body weight change as parameter of whole-body toxicity (Example 2); conditions: folinic acid 40.0 mg/kg/day (given as calcium folinate), alone or with tegafur+gimeracil+oteracil potassium 8.7+2.5+8.5 mg/kg/day or tegafur+uracil 15.1+33.8 mg/kg/day, oral once a day for 9 days; 10 days after beginning of administration
Source text: A cubic fragment measuring about 2 mm in diameter of the human colon cancer cell line Colon 38 was subcutaneously implanted on the backs of male mice C57BL/6. When the average tumor volume (=major axis (mm)×minor axis (mm)^2) reached about 150 mm^3, the mice were divided into groups.
The following preparations each dissolved or suspended in a 0.5% hydroxypropylmethyl cellulose (HPMC) solution were orally administered to the mice once a day in amounts as shown in Table 2 for 9 consecutive days from the day after grouping: calcium folinate; a tegafur/gimeracil/oteracil potassium combined drug (molar ratio of tegafur:gimeracil:oteracil potassium=1:0.4:1); a combined drug containing the tegafur/gimeracil/oteracil potassium combined drug described above and calcium folinate; a tegafur/uracil combined drug (molar ratio of tegafur:uracil=1:4); and a combined drug containing the tegafur/uracil combined drug described above and calcium folinate.
as §2

[8] = Body weight change as parameter of whole-body toxicity (Example 3); conditions: folinic acid 20.0 mg/kg/day (as calcium folinate), alone or with tegafur+gimeracil+oteracil potassium 5.7+1.7+5.6 mg/kg/day, oral once a day for 14 days; 15 days after beginning of administration
Source text: A cubic fragment measuring about 2 mm in diameter of the human colon cancer cell line KM20C was subcutaneously implanted on the backs of male nude mice (BALB/cA-nu). When the average tumor volume (=major axis (mm)×minor axis (mm)^2) reached about 200 mm^3, the mice were divided into groups.
A combined drug containing a tegafur/gimeracil/oteracil potassium combined drug (molar ratio of tegafur:gimeracil oteracil potassium=1:0.4:1) and calcium folinate, dissolved or suspended in a 0.5% hydroxypropylmethyl cellulose (HPMC) solution was orally administered to the mice once a day in amounts as shown in Table 3 for 14 consecutive days from the day after grouping.
The body weight change was calculated by subtracting the body weight of mice 15 days after the beginning of administration from the body weight of mice upon grouping used as a parameter of whole-body toxicity of the pharmaceutical preparation. Although calcium folinate was used in the experiment, the dosage given in the table is that calculated as the amount of folinic acid.

Row | Compound | 5-FU degradation inhibitory effect relative to that of uracil [1] | Relative tumor volume (Mean ± SD) [2] | Tumor growth inhibition ratio (%) ([2]; vs control group) | Relative tumor volume (Mean ± SD) [3] | Tumor growth inhibition ratio (%) [4] | enhancement of the antitumor effect of the tegafur/gimeracil/oteracil potassium combined drug ([5]; calcium folinate at the dose of 2.5 mg/kg/day) | enhancement of the antitumor effect of the tegafur/gimeracil/oteracil potassium combined drug ([5]; calcium folinate at the dose of 5 mg/kg/day) | Relative tumor volume (Mean ± SD) ([5]; folinic acid 20.0 mg/kg/day (as calcium folinate), alone or with tegafur+gimeracil+oteracil potassium 5.7+1.7+5.6 mg/kg/day, oral once a day for 14 days, 15 days after grouping) | Tumor growth inhibition ratio (%) ([5]; folinic acid 20.0 mg/kg/day (as calcium folinate), alone or with tegafur+gimeracil+oteracil potassium 5.7+1.7+5.6 mg/kg/day, oral once a day for 14 days, 15 days after grouping, vs control group) | Body weight change [6] | Body weight change [7] | Body weight change [8]
1 | Oc1cc(O)c(Cl)cn1 [gimeracil, 2,4-dihydroxy-5-chloropyridine] | about 200 times | – | – | – | – | – | – | – | – | – | – | –
2 | Nc1nc(=O)c2c([nH]1)NCC(CNc1ccc(C(=O)N[C@@H](CCC(=O)O)C(=O)O)cc1)N2C=O (mixture of isomers) [folinic acid] | – | 2.24 | 6.1% | 8.78 | 7.5% | some enhancement | clear enhancement | 4.50 ± 1.25 ^ | 5.4% | -0.8 g | 0.7 g | -0.6 g
